ChEMBL document CHEMBL1129075, “Synthesis and binding activity of some pyrazolo[1,5-c]quinazolines as tools to verify an optional binding site of a benzodiazepine receptor ligand” (J Med Chem, 1996)
Each block holds one compound with its values, some of them ahead of it.

What was measured:
[1] = system: GABA-A receptor; anion channel; assay: Displacement of [3H]flunitrazepam at GABA-A benzodiazepine receptor in rat brain cortical membranes (insoluble); assay type: cell membranes, Membrane
[2] = target: GABA-A receptor; anion channel; assay: Displacement of [3H]flunitrazepam at GABA-A benzodiazepine receptor in rat brain cortical membranes; assay type: cell membranes, Membrane

SMILES: Oc1nc2ccccc2c2cc(-c3nnco3)nn12
Ki [1]: Insoluble

SMILES: Oc1nc2ccccc2c2cc(-c3cccs3)nn12
Ki [2]: 7.4 nM

SMILES: O=C(O)c1cc2c3ccccc3nc(O)n2n1
Ki [2]: > 10000 nM

SMILES: Oc1nc2ccccc2c2cc(-c3ccccc3)nn12
Ki [2]: 59 nM

SMILES: c1ccc(-c2cc3c4ccccc4ncn3n2)cc1
Ki [2]: > 10000 nM

SMILES: Cc1nnc(-c2cc3c4ccccc4nc(O)n3n2)o1
Ki [2]: 4590 nM

SMILES: c1ccc(-c2cc3n(n2)CNc2ccccc2-3)cc1
Ki [2]: 6570 nM

SMILES: Oc1nc2ccccc2c2cc(-c3ccccn3)nn12
Ki [2]: 53 nM

SMILES: Cn1c(=O)n2nc(-c3ccccc3)cc2c2ccccc21
Ki [2]: > 10000 nM

SMILES: Oc1nc2ccccc2c2cc(-c3ccco3)nn12
Ki [2]: 16 nM

SMILES: Oc1nc2ccccc2c2cc(-c3ccc(Cl)cc3)nn12
Ki [2]: 5300 nM

SMILES: Oc1nc2ccc(Cl)cc2c2cc(-c3ccco3)nn12
Ki [2]: 41 nM

SMILES: CCOC(=O)c1cc2c(cn1)[nH]c1ccccc12
Ki [2]: 4.5 nM

SMILES: O=C(Oc1ccccc1)c1cc2c3ccccc3nc(O)n2n1
Ki [2]: 3150 nM

SMILES: Oc1nc2ccc(Cl)cc2c2cc(-c3ccccc3)nn12
Ki [2]: 105 nM

SMILES: Sc1nc2ccccc2c2cc(-c3ccccc3)nn12
Ki [2]: > 10000 nM

SMILES: CC(C)OC(=O)c1cc2c3ccccc3nc(O)n2n1
Ki [2]: 434 nM

Now from value to compound:

Ki [2]: 28 nM
SMILES: CCOC(=O)c1cc2c3ccccc3[nH]c(=O)n2n1

Ki [2]: 3290 nM
SMILES: CCOC(=O)c1cc2c3ccccc3nc(S)n2n1

Ki [2]: > 10000 nM
SMILES: CCOC(=O)c1cc2c3ccccc3ncn2n1

Ki [2]: 50 nM
SMILES: CCOC(=O)c1cc2c3cc(Cl)ccc3nc(O)n2n1

Ki [2]: > 10000 nM
SMILES: CCOC(=O)c1cc2c3ccccc3n(CC)c(=O)n2n1

Ki [2]: > 10000 nM
SMILES: CCOC(=O)c1cc2c3ccccc3n(C)c(=O)n2n1

Ki [2]: 22 nM
SMILES: COC(=O)c1cc2c3ccccc3[nH]c(=O)n2n1

Ki [2]: 70 nM
SMILES: CCOC(=O)c1cc2n(n1)CNc1ccccc1-2
